Data on two molecules can be found in paper PMC3903516 (PLoS ONE, 2014).

Series [1] deals with T1, CYP2A6*22 (Homo sapiens, UniProt P11509, D158E/L160I).
T1 construct: made in house; host or cells: E. coli (membrane fractions; pCW-CYP2A6*22 co-expressed with pACYC-OxR)
T1 sequence (P11509 1-494 D158E/L160I): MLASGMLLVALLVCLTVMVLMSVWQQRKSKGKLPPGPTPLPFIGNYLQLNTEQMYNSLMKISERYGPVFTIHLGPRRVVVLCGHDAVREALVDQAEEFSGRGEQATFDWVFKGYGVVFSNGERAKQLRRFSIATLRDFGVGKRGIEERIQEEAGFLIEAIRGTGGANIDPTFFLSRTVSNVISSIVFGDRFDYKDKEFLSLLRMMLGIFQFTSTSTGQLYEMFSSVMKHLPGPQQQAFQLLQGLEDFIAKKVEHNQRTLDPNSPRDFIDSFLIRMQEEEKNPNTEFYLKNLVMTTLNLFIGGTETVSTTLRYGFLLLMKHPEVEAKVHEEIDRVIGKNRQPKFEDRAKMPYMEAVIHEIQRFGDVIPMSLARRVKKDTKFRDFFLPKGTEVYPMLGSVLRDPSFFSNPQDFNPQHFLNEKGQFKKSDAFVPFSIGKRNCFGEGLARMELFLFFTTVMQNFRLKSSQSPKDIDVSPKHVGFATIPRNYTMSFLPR
Further details: method as in PMID 20139165. The following applies: coumarin 7-hydroxylation, mean ± SD n=3; cited from earlier work.

The target of series [2] is T2, CYP2A6*15 (Homo sapiens, UniProt P11509, K194E).
T2 construct: made in house; host or cells: E. coli (membrane fractions; pCW-CYP2A6*15 co-expressed with pACYC-OxR)
T2 sequence (P11509 1-494 K194E): T1 sequence (P11509 1-494 D158E/L160I) with E158D, I160L, K194E
Further details: method as in PMID 20139165. The following applies: coumarin 7-hydroxylation, mean ± SD n=3; cited from earlier work.

The subject of a further series is CYP2A6 K476E. More on the design: method as in PMID 16207711. Conditions: towards coumarin; cited from earlier work.
Series [3] addresses T3, CYP2A6*21 (Homo sapiens, UniProt P11509, K476R).
T3 construct: made in house; host or cells: E. coli (membrane fractions; pCW-CYP2A6*21 co-expressed with pACYC-OxR)
T3 sequence (P11509 1-494 K476R): T1 sequence (P11509 1-494 D158E/L160I) with E158D, I160L, K476R
Further details: method as in PMID 20139165. The following applies: coumarin 7-hydroxylation, mean ± SD n=3; cited from earlier work.

Series [4] has as its target T4, CYP2A6*16 (Homo sapiens, UniProt P11509, R203S).
T4 construct: made in house; host or cells: E. coli (membrane fractions; pCW-CYP2A6*16 co-expressed with pACYC-OxR)
T4 sequence (P11509 1-494 R203S): T1 sequence (P11509 1-494 D158E/L160I) with E158D, I160L, R203S
Further details: method as in PMID 20139165. The following applies: coumarin 7-hydroxylation, mean ± SD n=3; cited from earlier work.

For series [5], the target named is T5, CYP2A6*1 (wild-type) (Homo sapiens, UniProt P11509).
T5 construct: made in house; host or cells: E. coli (membrane fractions; pCW-CYP2A6*1 co-expressed with pACYC-OxR)
T5 sequence (P11509 1-494): T1 sequence (P11509 1-494 D158E/L160I) with E158D, I160L
Further details: method as in PMID 20139165. Conditions: coumarin 7-hydroxylation, mean ± SD n=3; cited from earlier work.

For series [6], the target named is T1, CYP2A6*22. Description: CYP2A6 inactivation assay (fluorescence-based coumarin 7-hydroxylase assay). The series is classed as biochemical. The following applies: pH 7.4, probe coumarin (10 µM; 7-hydroxylation), 8-MOP 1.0 µM, 10 min pre-incubation with NADPH generating system vs no pre-incubation, read-out: increased percentage in inhibition with pre-incubation. The text has this:
(§1) A fully functional P450 monooxygenase system requires collaboration of the CYP of interest in concert with the essential coenzyme, NADPH-CYP oxidoreductase (OxR). Here, we co-expressed the individual CYP2A6 plasmid constructs – pCW-CYP2A6, pCW-CYP2A6*15, pCW-CYP2A6*16, pCW-CYP2A6*21 or pCW-CYP2A6*22, with pACYC-OxR plasmid which allowed for OxR co-expression that was important for CYP2A6 catalytic function. Preparation of membrane fragments expressing holoenzyme protein of respective CYP2A6 construct was in accordance to the established method described previously. Membrane fractions were stored at −80°C in a 1∶1 mixture of pH 7.6 TES (100 mM Tris/0.5 mM EDTA/500 mM sucrose buffer) and ice-cold distilled water before use.
(§2) Assessment of coumarin 7-hydroxylation is a signature marker for CYP2A6 metabolic assay. To evaluate the inhibitory potency of 8-MOP on the kinetic activity of CYP2A6 variants, we adopted a fluorescence-based coumarin 7-hydroxylase assay upon minor modifications of an established protocol, [13]. […] NADPH generating system (1 mM NADP, 10 mM G6P, 2IU G6PDH and 5 mM MgCl2) in 0.1 M phosphate buffer, pH 7.4 was added subsequently to the incubation mixture to initiate the reactions. […] Enzyme inhibition reactions were allowed in 25 minutes of incubation and later terminated by 500 mM Tris base. The experimental conditions were selected such that under conditions with varying activities of CYP2A6 proteins, no more than 20% of the substrate was converted to 7-hydroxycoumarin. The fluorescent metabolite was detected by Tecan Infinite™ 200 series microplate reader (Männerdorf, Switzerland) at excitation wavelength 365 nm and emission wavelength 450 nm and further estimated based on the standard curve of 7-hydroxycoumarin which was constructed in the range of 15.63–2000 pmol/well previously (data not shown). Current assay also included control for fluorescent interference which consisted of inhibitor (at a concentration equal to the inhibition incubations) and bacterial control membranes.

In series [7] the target is T4, CYP2A6*16. The description is as above. The series is classed as biochemical. Conditions: pH 7.4, probe coumarin (10 µM; 7-hydroxylation), 8-MOP 1.0 µM, 10 min pre-incubation with NADPH generating system vs no pre-incubation, read-out: increased percentage in inhibition with pre-incubation.
Description: as §1, §2

Series [8] addresses T3, CYP2A6*21. Described as above. Conditions: pH 7.4, probe coumarin (10 µM; 7-hydroxylation), 8-MOP 1.0 µM, 10 min pre-incubation with NADPH generating system vs no pre-incubation, read-out: increased percentage in inhibition with pre-incubation. The series is classed as biochemical.
Description: as §1, §2

Series [9] concerns the target T5, CYP2A6*1 (wild-type). The series is described as above. Format: biochemical. Conditions: pH 7.4, probe coumarin (10 µM; 7-hydroxylation), 8-MOP 1.0 µM, 10 min pre-incubation with NADPH generating system vs no pre-incubation, read-out: increased percentage in inhibition with pre-incubation.
Description: as §1, §2

In series [10] the target is T2, CYP2A6*15. Described as above. Format: biochemical. The following applies: pH 7.4, probe coumarin (10 µM; 7-hydroxylation), 8-MOP 1.0 µM, 10 min pre-incubation with NADPH generating system vs no pre-incubation, read-out: increased percentage in inhibition with pre-incubation.
Description: as §1, §2

The term Km denotes the concentration of substrate that gives half-maximal velocity. Usually inhibition stands for the drop in the measured response relative to a control, in per cent.

Residue numbers refer to the chain shown, from its start.

In the case of `O=c1ccc2ccccc2o1` [coumarin], the Km at CYP2A6*22 [1] was 31.2 ± 2.22 µM; on CYP2A6*15 [2] it was 22.1 ± 1.29 µM; on CYP2A6*21 [3], 16.4 ± 0.41 µM; at CYP2A6*16 [4] it was 10.5 ± 1.45 µM; at CYP2A6*1 (wild-type) [5], 10.6 ± 1.58 µM. For the same molecule, in the series on CYP2A6 K476E, the “catalytic efficiency, % of the wild type kcat/Km value” was roughly 8%.

For `COc1c2occc2cc2ccc(=O)oc12` [8-methoxypsoralen], the inhibition at 35 min, 1 µM is 23% at CYP2A6*22 [6]; 31% at CYP2A6*16 [7]; 24% on CYP2A6*21 [8]; 35% on CYP2A6*1 (wild-type) [9]; 32% on CYP2A6*15 [10].
